Reference: patent US20020102533A1, “Hepatitis C protease exosite for inhibit or design” (priority 2000, published 2002)
Where a SMILES comes first, the peptide text is derived from it. Where no end group is shown, it is not given here. [ ]: non-standard residue; d: D form. The star is where a group is joined. Dip = N[C@H](C(=O)O)C(c1ccccc1)c1ccccc1; X1 = C=CCC(N*)B1OC2CC3CC(C3(C)C)C2(C)O1; Cha = N[C@@H](CC1CCCCC1)C(=O)O; AlgCF2CF3 = not defined here; Abu = CC[C@H](N)C(=O)O

How the values were obtained:
[1] = biological target: T1, HCV NS3 protease, genotype 1a (Hepatitis C virus genotype 1a, UniProt P26664); experiment: biochemical; assay type: biochemical; conditions: for (S = P6-P3′) Inhibition(+) / Activation (−): substrate A
T1 construct: NS3 protease catalytic domain (amino acids 1 to 192); MGAQH expression leader (5 aa), or alternatively the 15 aa His tag […]; made in house; host or cells: E. coli BL21 (DE3)
Protocol: (§1) Endpoint HPLC based HCV protease assay: HCV protease (5 nM) was incubated in 50 mM Tris pH 7.5, 0.1% maltoside, 5 mM DTT and appropriate amounts of glycerol, NS4A peptide, and substrate. Routine assays were 100 μl in volume containing 15% or 50% glycerol, 5.0 μM NS4A peptide and 5.0 μM substrate. Reactions were run at room temperature (˜22° C.) and quenched by the addition of 4 μl of 10% TFA before 10% of the substrate was consumed. Incubation times were 20 minutes for the ester substrate (Peptide Substrate A) and 80 minutes for the P6-P7′ amide substrate (Peptide Substrate B). […] Incubation times were 90 min. Samples, 50 μl, were injected onto an Hewlett Packard 1090 Liquid Chromatograph containing a Dynamax-60A C18 column. The column was eluted with a linear gradient from 10% acetonitrile to 45% acetonitrile in water. All solvents contained 0.1% TFA. A flow rate of 1 ml/min was used. […] The product peaks were detected by fluorescence excitation at 350 nm and emission at 500 nm.
Continuous fluorescence-based HCV protease assay: This asay was a modified version of method of Taliani (Taliani, M.; et al. Anal. Biochem. 240, 60-67, 1996) using Substrate A (Ac-D-E-D(EDANS)-E-E-Abuψ[COO]-A-S-K(DABCYL)—NH2). Assays were run in a 96-well microtiter plates using a Perkin Elmer Luminescence Spectrometer LS50B exciting at 350 nm (10 nm slit) and emitting at 500 nm (10 nm slit). In a typical assay the protease (1-4 nM) was incubated with 10 μM NS4a peptide in 50 mM Tris pH 7.0, 5.0 mM DTT, 50% glycerol, and […] for 15 min. Catalysis was initiated by the addition of Substrate A (final concentration 5.0 μM). Assays were also run under conditions where 15% glycerol, 0.1% Maltoside were substituted for 50% glycerol and 5% CHAPS. Enzymatic activity was monitored by measuring the increase in fluorescence with time using excitation wavelength of 350 nm and an emission wavelength of 500 nm. Both slit widths were 10 nm. Inhibition constants were determined from a nonlinear least squares fit of the data to the equation Vi/Vo=1/(1+[I]/Kiapp). Where Vi is the velocity measured in the presence of inhibitor (inhibitors were introduced with the NS4a peptide) and Vo is the velocity of controls. The thermodynamic Ki was determined from Kiapparent via the relationship for competitive kinetics: Ki=Kiapp/(1+[S]/Km) where [S] is the substrate concentration.
(§2) Footnote a for Table 1 references the assay condiditions: 1) Substrate A=P6-P3′, HCV protease (4.0 nM) was incubated with various concentrations of truncated analogs of Q9692 in 50 mM Tris buffer, pH 7.0, 15% glycerol, 0.1% maltoside, 5 mM DTT and 10 μM NS4A peptide in a 96-well microtiter plate at room temperature. After 15 minutes catalysis was initiated by the addition of Ac-D-E-D(EDANS)-E-E-Abuψ[COO]-A-S-K(DABCYL)—NH2 (final concentration 5.0 μM in a total reaction volume of 200 μl). Enzymatic activity was monitored by measuring the increase in fluorescence with time on a Perkin Elmer LS50B luminescence spectrometer (excitation 350 nm, emission 500 nm, both slits 10 nm). […] Assays were 100 μl in volume, reactions were run at room temperature (˜22 C) for 80 minutes (<10% of the substrate was consumed). The addition of 4 μl of 10% TFA quenched the reactions. Quantitation of hydrolysis products was determined by measuring fluorescent peak areas following HPLC. Products were detected by excitation at 350 nm and measuring emission at 500 nm. Aliquots (50 μl) of quenched enzymatic reactions were injected on an Hewlett Packard 1090 HPLC equipped with a ¼ inch Dynamex 60A C18 column. A linear gradient from 10% acetonitrile:H2O to 45% acetonitrile:H2O was run over a period of 15 min at a flow rate of 1.0 ml/min. All solvents contained 0.1% TFA.

[2] = biological target: T1, HCV NS3 protease, genotype 1a; assay type: biochemical; conditions: substrate B
Protocol: as §1, §2
Comparison of the effects of Q9692 on the hydrolysis of a P6-P3′ ester substrate (FIG. 2A) and a P6-P7′ substrate (FIG. 2B) and P6-P3′ amide substrate (FIG. 2C) were determined. For substrates A and B1 Concentrations of Q9692 are 0 (circles), 1 μM (squares), 2 μM (diamonds) and 4 μM (triangles). Assay conditions: HCV protease (5 nM) was incubated in 50 mM Tris buffer at pH 7.0, 15% glycerol, 0.1% maltoside, 5 mM DTT, 10 μM NS4A peptide, and specified concentration of substrate. Assays were 100 μl in volume and reactions were run at room temperature (22 C) and quenched by the addition of 4 μl of 10% TFA before 10% of the substrate was consumed. Incubation times were 20 minutes for the ester substrate and 80 minutes for the amide substrate. Hydrolysis products were quantitated by measuring fluorescent peak areas following HPLC and detection by excitation at 350 nm and measuring emission at 500 nm. Aliquots (50 μl) of quenched enzymatic reactions were injected on an Hewlett Packard 1090 HPLC equipped with a ¼ inch Dynamex 60A C18 column.

HCV protease [3] = conditions: cited from earlier work
HCV protease [4] = biological target: HCV protease (Hepatitis C virus genotype 1b, UniProt P26663); conditions: corresponding peptides as substrates; 50 mM Hepes pH 7.5, 1% CHAPS, 15% glycerol, NS4a cofactor peptide 80 μM; read-out: Ki; cited from earlier work
HCV protease (NS3) = biological target: T2, HCV protease (NS3) (Hepatitis C virus genotype 1a, UniProt P26664); assay type: binding; conditions: added to NS3 alone; excitation 280 nm
T2 construct: NS3 protease catalytic domain (amino acids 1 to 192); MGAQH expression leader (5 aa), or alternatively the 15 aa His tag MRGSHHHHHHMGAQH; made in house; host or cells: E. coli BL21 (DE3)
Protocol: Intrinsic fluorescence studies: Assays were conducted in 0.5 ml fluorescent cuvettes (0.4 ml total volume). […] Fluorescence spectra were obtained by exiting at 280 nm (10 nm slit) and scanning the emission profile from 300 to 400 nm (10 nm slit) at 1 nm s^−1.
Fluorescence spectrum of HCV protease (0.45 μM) in 50 mM Tris buffer, pH 7.0, containing 15% glycerol, and 0.10% maltoside were measured over a range of 300-400 nm using an excitation wavelength of 280 nm. Both excitation and emission slit widths were 10 nm and the scan rate was 1.0 nm sec^−1.

Row | Molecule | Kd [1] [µM] | (S = P6-P3′) Inhibition(+) / Activation (−) [1] | (S = P6-P7′) Inhibition (+) / Activation (−) [2] | also measured
1 | CC(=O)N[C@@H](CC(=O)O)C(=O)N[C@@H](CCC(=O)O)C(=O)N[C@H](C(=O)N[C@@H](CCC(=O)O)C(=O)N[C@@H](CC1CCCCC1)C(N)=O)C(c1ccccc1)c1ccccc1 [Q228, Ac-Asp-Glu-Dpa-Glu-Cha-NH2] (Ac-DE[Dip]E[Cha]-NH2) | 25 | − | + | 
2 | CC(=O)N[C@@H](CC(=O)O)C(=O)N[C@@H](CCC(=O)O)C(=O)N[C@H](C(=O)N[C@@H](CCC(=O)O)C(N)=O)C(c1ccccc1)c1ccccc1 [Q229, Ac-Asp-Glu-Dpa-Glu-NH2] (Ac-DE[Dip]E-NH2) | 240 | + | + | 
3 | CC(=O)N[C@@H](CC(=O)O)C(=O)N[C@@H](CCC(=O)O)C(=O)N[C@H](C(N)=O)C(c1ccccc1)c1ccccc1 [Q230, Ac-Asp-Glu-Dpa-NH2] (Ac-Asp-Glu-[Dip]-NH2) | 400 | + | + | 
4 | CC(=O)N[C@H](C(=O)N[C@@H](CCC(=O)O)C(=O)N[C@@H](CC1CCCCC1)C(N)=O)C(c1ccccc1)c1ccccc1 [Q236, Ac-Dpa-Glu-Cha-NH2] (Ac-[Dip]-Glu-[Cha]-NH2) | 66 | − | − | 
5 | CC(=O)N[C@@H](CCC(=O)O)C(=O)N[C@H](C(=O)N[C@@H](CCC(=O)O)C(=O)N[C@@H](CC1CCCCC1)C(N)=O)C(c1ccccc1)c1ccccc1 [Q240, Ac-Glu-Dpa-Glu-Cha-NH2] (Ac-E[Dip]E[Cha]-NH2) | 80 | − | − | 
6 | CC(=O)N[C@@H](CCC(=O)O)C(=O)N[C@@H](CC1CCCCC1)C(=O)N[C@@H](CS)C(=O)O [Q295, Ac-Glu-Cha-Cys-OH] (Ac-Glu-[Cha]-Cys-OH) | 300 | + | + | 
7 | CC(=O)N[C@H](C(=O)N[C@@H](CCC(=O)O)C(=O)N[C@@H](CC1CCCCC1)C(=O)N[C@@H](CS)C(=O)O)C(c1ccccc1)c1ccccc1 [Q296, Ac-Dpa-Glu-Cha-Cys-OH] (Ac-[Dip]E[Cha]C-OH) | 1.5 | − | − | 
8 | CC(=O)N[C@@H](CCC(=O)O)C(=O)N[C@H](C(=O)N[C@@H](CCC(=O)O)C(=O)N[C@@H](CC1CCCCC1)C(=O)N[C@@H](CS)C(=O)O)C(c1ccccc1)c1ccccc1 [Q297, Ac-Glu-Dpa-Glu-Cha-Cys-OH] (Ac-E[Dip]E[Cha]C-OH) | 40 | − | + | 
9 | C=CCC(NC(=O)[C@H](CC1CCCCC1)NC(=O)[C@H](CCC(=O)O)NC(=O)[C@@H](NC(=O)[C@H](CCC(=O)O)NC(=O)[C@H](CC(=O)O)NC(C)=O)C(c1ccccc1)c1ccccc1)B1OC2CC3CC(C3(C)C)C2(C)O1 (stereo partly drawn) [Q9716, Ac-Asp-Glu-Dpa-Glu-Cha-boroAlg—C10H16] (Ac-DE[Dip]E[Cha]-X1) |  |  |  | Ki [1]: ~0.005 µM
10 | Ac-Asp-(D)Glu-Chg-Val-X-Nva—OH |  |  |  | Ki (HCV protease [3]): 0.028 µM
11 | Ac-EDVW[Abu]C-OH |  |  |  | Ki (HCV protease [4]): 1.4 µM
12 | Asp-Glu-Val-Val-Pro-AlgCF2CF3 (DEVVP-AlgCF2CF3; reading uncertain; also: printed as Asp-Glu-Val-Val-Pro-AlgCF2CF3) [Q9714] |  |  |  | Dixon plots of 1/V versus Q9717 concentration ([1]; 5 μM substrate spanning P6-P3′): parallel lines
13 | DCSTPC [Ac-DCSTPC—OH] |  |  |  | Ki (HCV protease [4]): 180 µM
14 | DEMEEC [Ac-DEMEEC—OH] |  |  |  | Ki (HCV protease [4]): 0.6 µM
15 | KKGSVVIVGRIVLSGKPAIIPKK [NS4a] |  |  |  | increase in intrinsic fluorescence of the protease (NS3) (HCV protease (NS3)): 25%
